Laboratory results from ChEMBL document CHEMBL1201862, “PubChem BioAssay data set” (2004).
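Each compound was tested at five concentrations against cells in 96-well plates for 48 hours. At the GI50, growth is halved.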 Calls of active or inactive are those of the source. Cut-off read from the data, not from the text of the source: active = GI50 up to about 1.1 µM and inactive = higher.

How the values were obtained:
Assay in all cases: DTP human tumour cell line panel, 48 h
[1] = tested on: HL-60
[2] = tested on: SW-620
[3] = tested on: CCRF-CEM
[4] = tested on: OVCAR-4
[5] = tested on: A549
[6] = tested on: RPMI-8226
[7] = tested on: COLO 205
[8] = tested on: U-251
[9] = tested on: HOP-62
[10] = tested on: CAKI-1
[11] = tested on: OVCAR-8
[12] = tested on: SK-MEL-2
[13] = tested on: NCI-H522
[14] = tested on: SNB-19
[15] = tested on: SN12C
[16] = tested on: UO-31
[17] = tested on: SK-OV-3
[18] = tested on: NCI-H23
[19] = tested on: OVCAR-3
[20] = tested on: Hs-578T

Measured: GI50

CC1(C)CC(=O)c2c(oc3cc(O)c(O)cc23)C1
inactive: [1] 16 µM | [2] 19.1 µM | [3] 9.84 µM | [4] 19.5 µM | [5] 38 µM | [6] 17.5 µM | [7] 36.6 µM | [8] 33 µM | [9] 41.4 µM | [10] 25.8 µM | [11] 19.2 µM | [12] 26.7 µM | [13] 11.5 µM | [14] 82.2 µM | [15] 39.5 µM | [16] 37.7 µM | [17] > 100 µM

COc1cc(/C=C(\C#N)c2ccccn2)cc(Br)c1O
inactive: [1] 24 µM | [2] 18.4 µM | [3] 31.3 µM | [4] > 100 µM | [5] 58.6 µM | [18] 31 µM | [6] 40.9 µM | [7] 35.5 µM | [8] 28 µM | [9] 28.8 µM | [10] 48.5 µM | [19] 31.8 µM | [11] 65.3 µM | [12] 32.9 µM | [13] 27.5 µM | [14] 39 µM | [15] 45.2 µM | [16] 58.5 µM | [17] 55.1 µM

CCn1c2c(c3ccccc31)[C@@H](c1ccc(Cl)cc1)CC1C(=O)N(c3ccccc3)C(=O)C21 (some centres undefined)
inactive: [1] 16.4 µM | [2] > 100 µM | [3] 63.2 µM | [4] > 100 µM | [5] > 100 µM | [18] 95.3 µM | [6] 65 µM | [7] > 100 µM | [8] 52.6 µM | [9] 85.5 µM | [10] > 100 µM | [19] 55 µM | [11] > 100 µM | [12] 91.8 µM | [13] 80.2 µM | [14] > 100 µM | [15] 75.5 µM | [16] > 100 µM | [17] > 100 µM

CC1=C(c2cc(C(=O)Nc3cc(C)ccc3C)nc(N)n2)Sc2ccccc2N1
inactive: [1] > 100 µM | [2] > 100 µM | [3] > 100 µM | [4] > 100 µM | [5] > 100 µM | [18] > 100 µM | [6] > 100 µM | [7] > 100 µM | [8] > 100 µM | [9] > 100 µM | [10] > 100 µM | [19] > 100 µM | [11] > 100 µM | [12] > 100 µM | [13] > 100 µM | [14] > 100 µM | [15] > 100 µM | [16] > 100 µM | [17] > 100 µM

COc1ccc(-n2cnc3c(NC(C)(C)C(=O)O)ncnc32)cc1
inactive: [2] > 100 µM | [3] > 100 µM | [4] > 100 µM | [5] > 100 µM | [18] > 100 µM | [6] > 100 µM | [7] > 100 µM | [8] > 100 µM | [9] > 100 µM | [10] > 100 µM | [19] > 100 µM | [11] > 100 µM | [12] > 100 µM | [14] > 100 µM | [15] > 100 µM | [16] > 100 µM | [20] > 100 µM | [17] > 100 µM

Cc1ccc([N+](=O)[O-])cc1NC(=O)/C(=N/NC(=S)NN)C1SC(=S)NC1=O (centres undefined)
inactive: [1] 78.3 µM | [2] > 100 µM | [3] 40.2 µM | [4] > 100 µM | [5] > 100 µM | [18] > 100 µM | [6] > 100 µM | [7] > 100 µM | [8] > 100 µM | [9] > 100 µM | [10] > 100 µM | [11] > 100 µM | [12] > 100 µM | [13] > 100 µM | [14] > 100 µM | [15] > 100 µM | [16] > 100 µM | [17] > 100 µM

COc1cc(/C=C2\[C@H]3c4c(c(OC)c(C)c(OC)c4OC)C[C@@H](C(=O)N2Cc2ccccc2)N3C(=O)OCC(C)C)c(OC)c(C)c1OC
inactive: [1] 7.46 µM | [2] > 31.6 µM | [3] 33.6 µM | [4] > 100 µM | [5] > 71.1 µM | [18] > 100 µM | [6] 13.6 µM | [7] > 86.3 µM | [8] > 85.5 µM | [9] > 100 µM | [10] 23.6 µM | [19] > 41.4 µM | [11] > 100 µM | [12] > 100 µM | [13] 19.4 µM | [14] > 100 µM | [15] > 100 µM | [16] > 100 µM | [17] > 100 µM
